Measurements: PMC7504751, “Potential of 2-Chloro-N-(4-fluoro-3-nitrophenyl)acetamide Against Klebsiella pneumoniae and In Vitro Toxicity Analysis” (Molecules, 2020)
In brackets after ≈: the same amount, converted by molar mass. Where two headings read alike, the source gives them in different places.

Assays:
Type in all cases: cell-based, Klebsiella pneumoniae
[1] = tested on: K. pneumoniae (ATCC-700603 and KP-56); assay: Time-kill kinetics
Protocol: The determination of the action time of A2 substance against K. pneumoniae (ATCC-700603 and KP-56) was carried out exposing the microorganisms to concentrations equivalent to MIC and 2× MIC during times 0, 2, 4, 6, 8, 10, and 24 h. After incubation on Mueller–Hinton agar, bacterial colonies were counted. Bactericidal activity was defined as a ≥3-log reduction in bacterial counts (log10 CFU/mL).

K. pneumoniae strains = assay: Minimum bactericidal concentration (MBC); settings: for Effect: from MBC/MIC ratio
Protocol: The clinical isolates strains of K. pneumoniae were used in this study belong to the MICOTECA of the Antibacterial and Antifungal Activity Research Laboratory of the Federal University of Paraíba, Brazil, which are: KP-25, KP-26, KP-56, KP-83, KP-87, KP-138, KP-143, KP-166, KP-173, KP-176, KP-260, and KP-326. The American Type Culture Collection strain ATCC-700603 was used as controls. For use in the assays, bacterial suspensions were prepared in 0.9% saline solution, from fresh cultures, and adjusted to the McFarland standard 0.5 scale.
After MIC reading, the A2 minimum bactericidal concentration was determined by removing aliquots from the microdilution plates in the wells corresponding to concentrations equivalent to MIC, 2× MIC, 4× MIC, and 8× MIC and inoculating in new plates containing only culture broth. All controls were performed in parallel. MBC is defined as the lowest concentration capable of causing complete inhibition of bacterial growth after 24 h at 35 ± 2 °C [21, 44].

K. pneumoniae = assay: Effect on bacterial cell integrity (release of 260 nm absorbing material); settings: compared to negative control, p ≤ 0.0001
Protocol: The cell integrity can be assessed by releasing intracellular material, mainly nucleotides, which absorb 260 nm wavelengths. The K pneumoniae strains ATCC-700603, KP-26, KP-56, and KP-143 were used to perform this test. First, the bacterial inoculum was incubated in BHI broth (1 × 10^7 CFU/mL) overnight at 35 ± 2 °C. Then, centrifugation was performed at 400× g for 10 min. The cell pellet was washed three times with sterile PBS (phosphate-buffered saline) and resuspended in PBS containing the A2 substance at MIC and 2× MIC concentrations. As a negative control, suspensions that underwent the same procedures, but without treatment with the substance, were used. The tubes corresponding to the MIC were incubated for 10 h at 35 ± 2 °C, and the tubes corresponding to the 2× MIC, for 6 h. After incubation, the suspensions were centrifuged at 400× g for 10 min and the supernatants were read on a spectrophotometer at 260 nm. All analyses were performed in triplicate.

SMILES: O=C(CCl)Nc1ccc(F)c([N+](=O)[O-])c1 [A2, 2-chloro-N-(4-fluoro-3-nitrophenyl)acetamide]
- time of treatment to total reduction of viable cells ([1]; A2 at 2× MIC): 6 h
- time of treatment to total reduction of viable cells ([1]; A2 at MIC): 10 h
- MBC (K. pneumoniae strains; Klebsiella pneumoniae, ATCC700603, strain ATCC-700603, read-out: MBC): 512 µg/mL (≈ 2200 µM)
- MBC (K. pneumoniae strains; Klebsiella pneumoniae, all K. pneumoniae strains used in this study, read-out: MBC): 512 µg/mL (≈ 2200 µM)
- mode of action (bactericidal / bacteriostatic) (K. pneumoniae strains; all K. pneumoniae strains, from the MIC): bactericidal
- Effect (K. pneumoniae strains; strain ATCC-700603): Bactericide (bactericidal activity when the ratio between MBC and MIC is ≤4)
- MBC (K. pneumoniae strains; strain KP-25): 512 µg/mL (≈ 2200 µM)
- Effect (K. pneumoniae strains; strain KP-25): Bactericide (bactericidal activity when the ratio between MBC and MIC is ≤4)
- MBC (K. pneumoniae strains; strain KP-26): 512 µg/mL (≈ 2200 µM)
- Effect (K. pneumoniae strains; strain KP-26): Bactericide (bactericidal activity when the ratio between MBC and MIC is ≤4)
- MBC (K. pneumoniae strains; strain KP-56): 512 µg/mL (≈ 2200 µM)
- Effect (K. pneumoniae strains; strain KP-56): Bactericide (bactericidal activity when the ratio between MBC and MIC is ≤4)
- MBC (K. pneumoniae strains; strain KP-83): 512 µg/mL (≈ 2200 µM)
- Effect (K. pneumoniae strains; strain KP-83): Bactericide (bactericidal activity when the ratio between MBC and MIC is ≤4)
- MBC (K. pneumoniae strains; strain KP-87): 512 µg/mL (≈ 2200 µM)
- Effect (K. pneumoniae strains; strain KP-87): Bactericide (bactericidal activity when the ratio between MBC and MIC is ≤4)
- MBC (K. pneumoniae strains; strain KP-138): 512 µg/mL (≈ 2200 µM)
- Effect (K. pneumoniae strains; strain KP-138): Bactericide (bactericidal activity when the ratio between MBC and MIC is ≤4)
- MBC (K. pneumoniae strains; strain KP-143): 512 µg/mL (≈ 2200 µM)
- Effect (K. pneumoniae strains; strain KP-143): Bactericide (bactericidal activity when the ratio between MBC and MIC is ≤4)
- MBC (K. pneumoniae strains; strain KP-166): 512 µg/mL (≈ 2200 µM)
- Effect (K. pneumoniae strains; strain KP-166): Bactericide (bactericidal activity when the ratio between MBC and MIC is ≤4)
- MBC (K. pneumoniae strains; strain KP-173): 512 µg/mL (≈ 2200 µM)
- Effect (K. pneumoniae strains; strain KP-173): Bactericide (bactericidal activity when the ratio between MBC and MIC is ≤4)
- MBC (K. pneumoniae strains; strain KP-176): 512 µg/mL (≈ 2200 µM)
- Effect (K. pneumoniae strains; strain KP-176): Bactericide (bactericidal activity when the ratio between MBC and MIC is ≤4)
- MBC (K. pneumoniae strains; strain KP-260): 512 µg/mL (≈ 2200 µM)
- Effect (K. pneumoniae strains; strain KP-260): Bactericide (bactericidal activity when the ratio between MBC and MIC is ≤4)
- MBC (K. pneumoniae strains; strain KP-326): 512 µg/mL (≈ 2200 µM)
- Effect (K. pneumoniae strains; strain KP-326): Bactericide (bactericidal activity when the ratio between MBC and MIC is ≤4)
- release of 260 nm absorbing material (cell lysis) (K. pneumoniae; 2× MIC, six hours): Cell lysis is also evident
- release of 260 nm absorbing material (cytoplasmic contents) (K. pneumoniae; MIC, 10 h of treatment): significant release of cytoplasmic contents
